Results from patent US7759510B2, “Platinum complexes and methods of use” (University of South Florida, priority 2003, dated 2010).
Blank lines part the entries; values can stand above or below the compound they belong to.

Key:
Stat3 = biological target: T1, Stat3 (Mus musculus, UniProt P42227); assay: EMSA of nuclear extracts, Stat3 DNA-binding activity to hSIE probe; format: biochemical; details: in vitro
T1 construct: Nuclear extracts were prepared from NIH3T3/hEGFR cell that overexpress human epidermal growth factor (EGF) receptor and stimulated with EGF; endogenous in cells; host or cells: NIH3T3/hEGFR fibroblasts, EGF-stimulated (6 ng/ml, 15 min), nuclear extract
Method: Nuclear Extract Preparation and Analysis by EMSA of HK-Designated Platinum Complexes.
Nuclear extracts were prepared from NIH3T3/hEGFR cell that overexpress human epidermal growth factor (EGF) receptor and stimulated with EGF (6 ng/ml) for 15 min. Nuclear extracts were pre-incubated with compounds for 30 min at room temperature prior to incubation with radiolabeled probe. The ^32P-labeled oligonucleotide probe used is hSIE (high affinity sis-inducible element, m67 variant, 5′-[…]-3′) (SEQ ID NO:1) that binds both Stat1 and Stat3.
Other platinum (IV) complexes were evaluated for inhibitory activity against STAT DNA-binding in vitro.

A549 cells = assay: MTT assay, percent survival of A549 cells; format: cell-based; details: A549
Method: 1. Prepare a suspension of A549 cells at 2×10^5 cells per mL in supplemented DMEM/F12 growth medium.
2. Plate 2×10^4 cells per well in a 96 well cell culture plate by adding 100 μL of stock suspension to each well.
3. For each platinum compound (already in solution), prepare a readily usable stock solution in DMEM/F12 medium.
4. For each compound generate triplicate trials of 0, 10, 20, 30, 40, 50, 60, and 70 μM concentration. This is achieved in situ by adding appropriate volumes of stock solution to each well along with the volume of untreated medium necessary to generate the desired concentration in a final volume of 200 μL.
5. Gently agitate plates to mix contents. Incubate at 37° C., 7% CO2 for 45 hours.
6. Add 20 μL of 5 mg/mL MTT solution (in PBS) to each well.
7. Gently agitate plates to mix contents and incubate an additional 3 hours to allow product development.
8. Remove plates from incubator and agitate to cause settling of formazan product.
9. Aspirate out liquid contents of each well using needle and syringe and discard.
10. Add 200 μL DMSO to each well to dissolve formazan product.
11. Agitate plates until all of the formazan product is in solution and no purple crystals remain on the bottom surface of the wells.
12. Read the absorbance of each well at […] using Varian software for Cary 50 UV-vis Spectrophotometer with fiber optic probe accessory.
(§1) MTT assays are used for the quantitative determination of cellular proliferation and activation and for the quantitation of in vitro tumor cell sensitivity to anti-cancer compounds. The assay is based on the cleavage of the yellow tetrazolium salt MTT into purple colored formazan by metabolically active cells. Solubilized formazan product can be photometrically quantitated using an ELISA plate reader. A decrease in the number of living cells results in a decrease in total metabolic activity which leads to a decrease in color formation. Platinum complexes of the present invention were tested in MTT assays using A549 cells to determine anti-cancer cell activity. […] FIGS. 1, 2, and 4 show percent survival versus platinum complex concentration in graphical form.
as §1, with “FIGS. 8, 9,” for “FIGS. 1, 2,”, “and 11” for “and 4”

T1 sequence (P42227 whole entry): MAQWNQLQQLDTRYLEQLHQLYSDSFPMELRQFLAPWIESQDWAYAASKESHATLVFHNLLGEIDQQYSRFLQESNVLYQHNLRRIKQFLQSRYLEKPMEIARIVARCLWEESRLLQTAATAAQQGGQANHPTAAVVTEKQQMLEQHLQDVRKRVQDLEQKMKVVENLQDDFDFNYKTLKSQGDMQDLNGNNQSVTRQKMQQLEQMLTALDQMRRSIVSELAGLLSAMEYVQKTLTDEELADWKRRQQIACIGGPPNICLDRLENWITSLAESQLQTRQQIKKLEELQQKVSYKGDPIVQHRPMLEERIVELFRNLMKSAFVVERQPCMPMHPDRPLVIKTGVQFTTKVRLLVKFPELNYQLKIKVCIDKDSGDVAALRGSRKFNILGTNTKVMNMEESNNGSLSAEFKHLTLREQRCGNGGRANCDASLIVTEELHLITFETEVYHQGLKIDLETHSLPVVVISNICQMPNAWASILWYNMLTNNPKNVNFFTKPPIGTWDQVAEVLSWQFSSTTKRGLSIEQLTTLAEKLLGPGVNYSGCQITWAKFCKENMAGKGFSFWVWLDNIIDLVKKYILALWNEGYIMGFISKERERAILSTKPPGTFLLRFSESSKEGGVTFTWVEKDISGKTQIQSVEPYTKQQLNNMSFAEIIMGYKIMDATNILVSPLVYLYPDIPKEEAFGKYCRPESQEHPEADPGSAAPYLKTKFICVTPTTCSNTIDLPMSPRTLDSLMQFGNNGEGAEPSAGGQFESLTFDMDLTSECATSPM

Disruption of Stat3 activity / ability to bind its consensus binding sequence (Stat3): strongly disrupt Stat3 activity
Compound: [NH2][Pt]([NH2])([Cl])([Cl])([Br])[N+](=O)[O-] [CPA-10]

Compound: CO[C@H]1O[C@H](CO)[C@@H](O)[C@H](O)[C@@H]1O [Methyl alpha-D-Mannopyranoside]
IC50 (A549 cells; Homo sapiens, Table 7, linear trend from percent survival vs. concentration data, read-out: Calculated IC 50 (uM concentration)): 50.1 µM | Average Absorbance (A549 cells; Table 6, 10 μM): 2.4582 | Percent Survival (A549 cells; Table 6, 10 μM): 104.1125% | Average Absorbance (A549 cells; Table 6, 20 μM): 2.4610 | Percent Survival (A549 cells; Table 6, 20 μM): 104.2311% | Average Absorbance (A549 cells; Table 6, 30 μM): 2.1544 | Percent Survival (A549 cells; Table 6, 30 μM): 91.2456% | Average Absorbance (A549 cells; Table 6, 40 μM): 1.1005 | Percent Survival (A549 cells; Table 6, 40 μM): 46.6096% | Average Absorbance (A549 cells; Table 6, 50 μM): 0.6631 | Percent Survival (A549 cells; Table 6, 50 μM): 28.0844% | Average Absorbance (A549 cells; Table 6, 60 μM): 0.9420 | Percent Survival (A549 cells; Table 6, 60 μM): 39.8967% | Average Absorbance (A549 cells; Table 6, 70 μM): 0.8479 | Percent Survival (A549 cells; Table 6, 70 μM): 35.9112% | Average Absorbance (A549 cells; Table 8, 10 μM): 2.6117 | Percent Survival (A549 cells; Table 8, 10 μM): 106.9098% | Average Absorbance (A549 cells; Table 8, 20 μM): 2.4353 | Percent Survival (A549 cells; Table 8, 20 μM): 99.6889% | Average Absorbance (A549 cells; Table 8, 30 μM): 1.7315 | Percent Survival (A549 cells; Table 8, 30 μM): 70.8789% | Average Absorbance (A549 cells; Table 8, 40 μM): 0.6173 | Percent Survival (A549 cells; Table 8, 40 μM): 25.2691% | Average Absorbance (A549 cells; Table 8, 50 μM): 0.4370 | Percent Survival (A549 cells; Table 8, 50 μM): 17.8886% | Average Absorbance (A549 cells; Table 8, 60 μM): 0.5017 | Percent Survival (A549 cells; Table 8, 60 μM): 20.5371% | Average Absorbance (A549 cells; Table 8, 70 μM): 0.5339 | Percent Survival (A549 cells; Table 8, 70 μM): 21.8552%

Compound: Safranin
Average Absorbance (A549 cells; Table 9, 10 μM): 0.4933 | Percent Survival (A549 cells; Table 9, 10 μM): 77.35% | Average Absorbance (A549 cells; Table 9, 20 μM): 0.4394 | Percent Survival (A549 cells; Table 9, 20 μM): 68.9% | Average Absorbance (A549 cells; Table 9, 30 μM): 0.2197 | Percent Survival (A549 cells; Table 9, 30 μM): 34.46% | Average Absorbance (A549 cells; Table 9, 40 μM): 0.07453 | Percent Survival (A549 cells; Table 9, 40 μM): 11.69% | Average Absorbance (A549 cells; Table 9, 50 μM): 0.05293 | Percent Survival (A549 cells; Table 9, 50 μM): 8.301% | Average Absorbance (A549 cells; Table 9, 60 μM): 0.0432 | Percent Survival (A549 cells; Table 9, 60 μM): 6.775% | Average Absorbance (A549 cells; Table 9, 70 μM): 0.05447 | Percent Survival (A549 cells; Table 9, 70 μM): 8.541%

Compound: Caffeine
Average Absorbance (A549 cells; Table 9, 10 μM): 0.4606 | Percent Survival (A549 cells; Table 9, 10 μM): 72.24% | Average Absorbance (A549 cells; Table 9, 20 μM): 0.3935 | Percent Survival (A549 cells; Table 9, 20 μM): 61.71% | Average Absorbance (A549 cells; Table 9, 30 μM): 0.2016 | Percent Survival (A549 cells; Table 9, 30 μM): 31.62% | Average Absorbance (A549 cells; Table 9, 40 μM): 0.08893 | Percent Survival (A549 cells; Table 9, 40 μM): 13.95% | Average Absorbance (A549 cells; Table 9, 50 μM): 0.04983 | Percent Survival (A549 cells; Table 9, 50 μM): 7.815% | Average Absorbance (A549 cells; Table 9, 60 μM): 0.06103 | Percent Survival (A549 cells; Table 9, 60 μM): 9.571% | Average Absorbance (A549 cells; Table 9, 70 μM): 0.05103 | Percent Survival (A549 cells; Table 9, 70 μM): 8.003%

Compound: CC(=O)N[C@H]1C(O)O[C@H](CO)[C@@H](O)[C@@H]1O (stereo partly drawn) [N-acetyl glucosamine]
Average Absorbance (A549 cells; Table 9, 10 μM): 0.6179 | Percent Survival (A549 cells; Table 9, 10 μM): 96.89% | Average Absorbance (A549 cells; Table 9, 20 μM): 0.378 | Percent Survival (A549 cells; Table 9, 20 μM): 59.27% | Average Absorbance (A549 cells; Table 9, 30 μM): 0.1735 | Percent Survival (A549 cells; Table 9, 30 μM): 27.21% | Average Absorbance (A549 cells; Table 9, 40 μM): 0.02397 | Percent Survival (A549 cells; Table 9, 40 μM): 3.758% | Average Absorbance (A549 cells; Table 9, 50 μM): 0.0397 | Percent Survival (A549 cells; Table 9, 50 μM): 6.226% | Average Absorbance (A549 cells; Table 9, 60 μM): 0.05523 | Percent Survival (A549 cells; Table 9, 60 μM): 8.662% | Average Absorbance (A549 cells; Table 9, 70 μM): 0.01897 | Percent Survival (A549 cells; Table 9, 70 μM): 2.974%
